The values below come from patent US12303509B2, “Compounds for the treatment of BRAF-associated diseases and disorders” (Pfizer Inc., priority 2020, dated 2025).

A word on the Papp: it is a coefficient for how fast a substance crosses the barrier. A word on the IC50: it is the concentration needed to halve the response being measured. The term efflux ratio denotes the permeability from basolateral to apical divided by that in the opposite direction, in the common usage.

SMILES strings stand for the structures.

Data set [1] is described as follows: MDR1 LLC-PK1 and BCRP MDCKII permeability assay: permeability coefficient (Papp). The data set is classed as in vitro ADME. The text has this:
Final organic concentration in the assay was 1%.

For data set [2], the system named is NCI-H1666 (BRAF G466V) cells. Nature of the data set: Cellular phospho-ERK inhibition assay in NCI-H1666 cells. As to conditions: Homo sapiens, 1 hour treatment, read-out: IC50 NCI-H1666 pERK. The data set is classed as cell-based. The method, then: The compounds of Example 13, Example 14 and Example 126 were evaluated in a phospho-ERK assay in two mutant BRAF Class III cell lines: NCI-H1666 (BRAF^G466V) and WM3629 cells (BRAF^D594G/NRAS^G12D). NCI-H1666 cells were obtained from the American Type Culture Collection (ATCC, Rockville, MD) and WM3629 cells were obtained from Rockland Immunochemicals (Limerick, PA). Cells were maintained in RPMI growth medium containing 10% FBS.
Cells were harvested according to standard protocols, counted, and plated onto flat-bottom, 96-well tissue culture plates (Costar #3599) at 2.5×10^4 cells/well in 100 μL/well of growth medium containing 10% FBS. After an overnight incubation at 37° C. with 5% CO2 cells were treated for 1 hour at 37° C., 5% CO2 with inhibitors prepared as a 9-point, 1:3.33 fold dilution series with final compound concentrations ranging from 66 pM-10 μM and a constant DMSO concentration of 0.25%. Control wells contained either 0.25% DMSO alone (uninhibited control) or 10 μM binimetinib (complete inhibition control). The levels of phosphorylated ERK were determined using an In Cell Western protocol: following compound incubation, growth medium was discarded, and cells were fixed with 0.4% formaldehyde in PBS for 20 minutes at room temperature. Cells were permeabilized with 100% methanol for 10 minutes at room temperature. Plates were washed with PBS containing 0.05% Tween-20 and blocked for 1 hour at room temperature with LI-COR Blocking Buffer (LI-COR Biosciences; Cat. #927-40000). Plates were then incubated for 2 hours at room temperature with 50 μL of a 1:400 dilution of anti-phospho-ERK1/2 (Thr202/Tyr204) (Cell Signaling; Cat. #9101) and a 1:1000 dilution of anti-GAPDH (Millipore; Cat. #MAB374) in LI-COR blocking buffer containing 0.05% Tween-20. […] Plates were analyzed by reading on an Odyssey CLx infrared scanner. […]
[formula] • Where: • Xmax d Average Uninhibited Controls • Xmin Average Complete Inhibition Controls • IC50 values were then calculated using a 4-parameter fit in XLfit software and are shown in Table A2.

For data set [3], the target named is BCRP (Homo sapiens (Human), UniProt Q9UNQ0). Description: BCRP MDCKII permeability assay: efflux ratio. As to conditions: dog. The data set is classed as in vitro ADME.
The nature of data set [4]: PK (free brain-to-free plasma ratio) (mouse). The data set is classed as in vivo. As to conditions: male CD-1 mice, oral gavage 10 mg/kg, unbound brain-to-unbound plasma, read-out: B/P ratio (free).

BCRP, sequence (Q9UNQ0 whole entry): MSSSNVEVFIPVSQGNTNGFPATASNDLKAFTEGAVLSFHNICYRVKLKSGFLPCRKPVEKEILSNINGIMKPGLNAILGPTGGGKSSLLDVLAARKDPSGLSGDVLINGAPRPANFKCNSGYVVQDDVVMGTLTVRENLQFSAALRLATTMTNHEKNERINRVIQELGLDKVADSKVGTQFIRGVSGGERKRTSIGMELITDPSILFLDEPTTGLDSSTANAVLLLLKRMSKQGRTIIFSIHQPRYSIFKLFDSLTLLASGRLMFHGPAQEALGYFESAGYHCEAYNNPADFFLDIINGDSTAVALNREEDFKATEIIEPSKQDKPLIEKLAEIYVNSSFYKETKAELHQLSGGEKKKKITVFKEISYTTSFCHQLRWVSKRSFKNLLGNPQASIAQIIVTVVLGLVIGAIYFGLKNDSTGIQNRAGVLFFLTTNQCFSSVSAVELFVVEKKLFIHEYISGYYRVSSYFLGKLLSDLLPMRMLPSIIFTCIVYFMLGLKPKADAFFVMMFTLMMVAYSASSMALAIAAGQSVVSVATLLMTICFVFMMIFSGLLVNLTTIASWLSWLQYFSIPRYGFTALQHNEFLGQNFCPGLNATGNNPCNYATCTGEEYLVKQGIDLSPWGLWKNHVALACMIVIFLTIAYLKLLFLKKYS

In turn, `Cn1cnc2ccc(Nc3c(F)ccc(NS(=O)(=O)N4CC5CC4C5)c3Cl)c(F)c2c1=O` [Example 13, N-(2-chloro-4-fluoro-3-((5-fluoro-3-methyl-4-oxo-3,4-dihydroquinazolin-6-yl)amino)phenyl)-2-azabicyclo[2.1.1]hexane-2-sulfonamide] yielded a Papp at 2 h, 1 µM in data set [1] of 32 ×10⁻⁶ cm/s. Besides, the IC50 in data set [2] was determined as 0.015 µM. For the same compound, the efflux ratio at 2 h, 1 µM in data set [3] is 1.8. In data set [4], the Kp lay in the range of 0.75 to 0.93.
Taken in the same sequence, the figures for `Cn1cnc2ccc(Nc3c(F)ccc(NS(=O)(=O)N4CC[C@@H](F)C4)c3Cl)c(F)c2c1=O` [Example 14, (R)-N-(2-chloro-4-fluoro-3-((5-fluoro-3-methyl-4-oxo-3,4-dihydroquinazolin-6-yl)amino)phenyl)-3-fluoropyrrolidine-1-sulfonamide] were 28 ×10⁻⁶ cm/s, 0.0071 µM, 5.4 and 0.13 to 0.39.
